Data from patent publication US20040097573A1, “Use of a COX-2 inhibitor and a NK-1 receptor antagonist for treating inflammation” (priority 1998, published 2004).

Key:
[1] = system: foot tapping in gerbils induced by central infusion of NK-1 receptor agonists such as GR73632; experiment: Gerbil foot-tapping (Assay 2); type: in vivo, Mongolian gerbils; details: i.v.
From the text: ASSAY 2: Gerbil Foot-Tapping
CNS-penetrant NK-1 receptor antagonists for use in the present invention can be identified by their ability to inhibit foot tapping in gerbils induced by central infusion of NK-1 receptor agonists such as GR73632, based on the method of Rupniak & Williams, Eur. J. Pharmacol., 1994, 265, 179.
Male or female Mongolian gerbils (35-70 g) are anaesthetised by inhalation of an isoflurane/oxygen mixture to permit exposure of the jugular vein in order to permit administration of test compounds or vehicle in an injection volume of approximately 5 ml/kg i.v. Alternatively, test compounds may be administered orally or by subcutaneous or intraperitoneal routes. A skin incision is then made in the midline of the scalp to expose the skull. The selective NK-1 receptor agonist (e.g. GR73632 (d Ala[L-Pro^9,Me-Leu^10]-substance P-(7-11)) is infused directly into the cerebral ventricles (e.g. 3 pmol in 5 μl i.c.v., depending on test substance) by vertical insertion of a cuffed 27 gauge needle to a depth of 4.5 mm below bregma. The scalp incision is closed and the animal allowed to recover from anaesthesia in a clear perspex observation box (approximately 25 cm×20 cm×20 cm). The duration and/or intensity of hind foot tapping is then recorded continuously for approximately 5 minutes.

[2] = system: cisplatin-induced emesis in ferrets; experiment: Ferret emesis (Assay 3); type: in vivo; details: p.o.
Experimental: ASSAY 3: Ferret Emesis Individually housed male ferrets (1.0-2.5 kg) are dosed orally by gavage with test compound. Ten minutes later they are fed with approximately 100 g of tinned cat food. At 60 minutes following oral dosing, cisplatin (10 mg/kg) is given i.v. via a jugular vein catheter inserted under a brief period of halothane anaesthesia. The catheter is then removed, the jugular vein ligated and the skin incision closed. The ferrets recover rapidly from the anaesthetic and are mobile within 10-20 minutes. The animals are observed continuously during recovery from the anaesthetic and for 4 hours following the cisplatin injection, after which time the animals are killed humanely. The numbers of retches and vomits occurring during the 4 hours after cisplatin administration are recorded by trained observers.

With C[C@@H](O[C@H]1OCCN(Cc2n[nH]c(=O)[nH]2)[C@H]1c1ccc(F)cc1)c1cc(C(F)(F)F)cc(C(F)(F)F)c1 [2-(R)-(1-(R)-(3,5-bis(trifluoromethyl)phenyl)-ethoxy)-3-(S)-(4-fluorophenyl)-4-(3-(5-oxo-1H,4H-1,2,4-triazolo)methyl)-morpholine] the “gerbil foot-tapping (5 mins.) ID50” value [1] was “ID50 = 0.36 mg/kg i.v”, the “gerbil foot-tapping (24 hrs.) ID50” value [1] was “ID50 = 0.33 mg/kg i.v” and the “ferret emesis ID90” value [2] was “ID90 < 3 mg/kg p.o”.
C[C@@H](O[C@H]1OCCN(Cc2nn[nH]c2CN(C)C)[C@H]1c1ccccc1)c1cc(C(F)(F)F)cc(C(F)(F)F)c1 [2-(R)-(1-(R)-(3,5-bis(trifluoromethyl)phenyl)ethoxy)-4-(5-(N,N-dimethylamino)methyl-1,2,3-triazol-4-yl)methyl-3-(S)-phenylmorpholine] was tested, and the “gerbil foot-tapping (5 mins.) ID50” value [1] was “ID50 = 0.12 mg/kg i.v” and the “gerbil foot-tapping (24 hrs.) ID50” value [1] was “ID50 = 0.17 mg/kg i.v”.
